From patent US9340549B2, “Oxazolidinone compounds and derivatives thereof” (priority 2012, dated 2016)
Like-named read-outs stand apart in the source and are kept apart here.

Key:
[1] = molecular target: 6×HIS-tankyrase 1 (1091-1325) (Homo sapiens (Human), UniProt O95271); assay: biochemical; assay type: biochemical; details: […] enzyme, 400 nM NAD, 60 minutes at room temperature; read-out: TNKS1 IP IC50
[2] = test system: total β-catenin in SW480 colorectal cells; assay: cells; assay type: cell-based; details: Homo sapiens
Description: Total β-Catenin MSD 96-Well Plate Assay for SW480 Cells
SW480 colorectal cells were seeded at a density of 10,000/well in CellBIND 96-well plates (Corning catalog no. 3300) in 60 μL of normal growth medium (MEM alpha supplemented with 10% heat inactivated FBS, GlutaMAX, pyruvate, and 10 mM HEPES).
A 10-point, 3-fold dilution series for each TNKS inhibitor was constructed in a 96-well “stock” plate. […] The plates were incubated at 37° C. for 40 to 48 hours. The media was removed from the CellBIND plate via plate inversion and gentle shaking and the inverted plate was touched to a paper towel and immediately placed on ice. […] Plates containing cell lysates were sealed and shaken for one hour at 4° C. and then quickly frozen in a −80° C. for approximately 15 to 30 minutes followed by gradually thawing at 4° C. Finally, lysate containing plates were centrifuged @1000×g (2073 rpm) for 10 minutes at 4° C.
The sealed MSD plate was incubated overnight in a cold room with gentle shaking. The MSD plate was then blocked with 150 μL of Blocker “A” per well and incubated overnight at 4° C. with vigorous shaking. The blocked MSD plate was washed 4 times with 150 μL/well TBS-T wash buffer (150 mM NaCl, 50 mM Tris, pH 7.5, 0.02% Tween-20). Cell lysates (75 μL) were transferred to prepared MSD plates and incubated at 4° C. ON with gentle shaking. […] The detection antibody was incubated for 1 hour at room temperature with vigorous shaking after which plates were washed 3 times with 150 μL/well TBS-T wash buffer. Plates were processed for analysis by the addition of 150 μL/well MSD Read 4× Buffer T with surfactant (catalog no. R92TC-2; diluted 1:3 in deionized water) and were read on the SECTOR Imager 6000.

Axin2 in SW480 cells = assay: cells; assay type: cell-based; details: read-out: Axin2 384 IF EC50 IP
Description: Using a VPrep, 10 μL of compound/controls was transferred from the compound plate to 60 μL in the cell plate (final 0.5% DMSO, 70 μL). The mixture was incubated for 24 hours at 37° C. at 5% CO2.
The extra media was tapped out. 50 μL of 4% paraformaldehyde (Fisher, AA433689M), 0.1% Triton (Sigma, X100-100 ML) in PBS were added, and the mixture was incubated for 15 minutes at room temperature. […] The extra media was tapped out and to this was added 50 μL of buffer containing Axin2 Antibody (Sigma, SAB1100677-200 µL) at 1:10000 in PBS, 0.1% Tween-20, 1% Normal Goat Serum. The mixture was incubated for 2 hours at room temperature or overnight at 4° C. The cells were then washed twice with PBS, 0.1% Tween-20, and 1% Normal Goat Serum. […] The mixture was then incubated for 30 minutes at room temperature. The cells were then washed twice with PBS, 0.1% Tween-20, and 1% Normal Goat Serum. 50-100 μL PBS was added, and the mixture was covered with a plate seal (Fisher, NC9425162). An ArrayScan (a variation of the compartmental analysis protocol was optimized) was used to scan the plates, and data was analyzed using MEAN_RingSpotAvgIntenCh2). The Axin2 accumulation POC was calculated, and the EC50 was determined using Genedata Screener software to report Axin2 activity.

[3] = SW480 cells, 40 to 48 hours, top concentration 10 μM, read-out: SW480-Total β-Catenin IC50 IP
[4] = Homo sapiens, SW480, 24 h, SW480 cells, 24 hours
[5] = SW480, read-out: SW480-Total β-Catenin IC50 IP
[6] = Homo sapiens, SW480 cells, 24 hours

Chain of 6×HIS-tankyrase 1 (1091-1325) (O95271 1091-1325): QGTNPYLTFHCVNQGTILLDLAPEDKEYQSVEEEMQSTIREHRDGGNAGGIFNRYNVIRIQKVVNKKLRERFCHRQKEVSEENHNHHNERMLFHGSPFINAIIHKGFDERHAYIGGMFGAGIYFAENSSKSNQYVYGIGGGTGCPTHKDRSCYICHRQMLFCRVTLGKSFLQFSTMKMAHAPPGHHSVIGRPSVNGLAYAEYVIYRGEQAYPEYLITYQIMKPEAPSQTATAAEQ

Row | IC50 [2, 5] [µM] | EC50 (Axin2 in SW480 cells; Homo sapiens, SW480, 24 h) [µM] | EC50 (Axin2 in SW480 cells; [6]) [µM] | SMILES | IC50 [1] [µM] | IC50 [2, 3] [µM] | EC50 (Axin2 in SW480 cells; [4]) [µM] | EC50 (Axin2 in SW480 cells; SW480 cells, 24 hours) [µM]
1 | – | – | – | CC1(C)OC(=O)N(c2ccc(-c3cnc(N)c(-c4cnnc(Cl)c4)c3)cc2)[C@H]1c1ccccc1 (single isomer, unassigned) [Example 101] | 0.0162 | 0.21 | 0.197 | –
2 | – | – | – | CC1(C)OC(=O)N(c2ccc(N3C(=O)Cc4ccccc43)cc2)[C@H]1c1ccccc1 [Example 18, (S)-5,5-dimethyl-3-(4-(2-oxoindolin-1-yl)phenyl)-4-phenyloxazolidin-2-one] | 0.973 | > 10 | > 25 | –
3 | – | – | – | CC1(C)OC(=O)N([C@H]2CC[C@H](n3c(=O)[nH]c4cnc(Cl)cc43)CC2)[C@H]1c1ccccc1 [Example 53, (S)-3-((1r,4S)-4-(6-chloro-2-oxo-2,3-dihydro-1H-imidazo[4,5-c]pyridin-1-yl)cyclohexyl)-5,5-dimethyl-4-phenyloxazolidin-2-one] | 0.00652 | 0.284 | 0.291 | –
4 | – | – | – | CC1(C)OC(=O)N([C@H]2CC[C@H](n3c(=O)[nH]c4cnccc43)CC2)[C@H]1c1ccc(F)cc1 [Example 55, (S)-4-(4-Fluorophenyl)-5,5-dimethyl-3-((1r,4S)-4-(2-oxo-2,3-dihydro-1H-imidazo[4,5-c]pyridin-1-yl)cyclohexyl)oxazolidin-2-one] | 0.00295 | 0.145 | 0.1 | –
5 | – | – | – | CC1(C)OC(=O)N(c2ccc(-c3ccc[nH]c3=O)cc2)[C@H]1c1ccccc1 [Example 119, (S)-5,5-dimethyl-3-(4-(2-oxo-1,2-dihydropyridin-3-yl)phenyl)-4-phenyloxazolidin-2-one] | 1.35 | > 10 | > 25 | –
6 | – | – | – | CC1(C)OC(=O)N(c2ccc(-n3cc(-c4ccccc4)[nH]c3=O)cc2)[C@H]1c1ccccc1 [Example 80, (4S)-5,5-dimethyl-3-(4-(2-oxo-4-phenyl-2,3-dihydro-1H-imidazol-1-yl)phenyl)-4-phenyl-1,3-oxazolidin-2-one] | 3.08 | 1.36 | > 12.5 | > 25
7 | – | – | – | CC1(C)OC(=O)N([C@H]2CC[C@H](n3c(=O)[nH]c4cnc(C(F)(F)F)cc43)CC2)[C@H]1c1ccccc1 [Example 52, (S)-5,5-dimethyl-3-((1r,4S)-4-(2-oxo-6-(trifluoromethyl)-2,3-dihydro-1H-imidazo[4,5-c]pyridin-1-yl)cyclohexyl)-4-phenyloxazolidin-2-one] | 0.0258 | 0.693 | 1.03 | –
8 | – | – | – | CC1(C)OC(=O)N([C@H]2CC[C@H](c3cnc4[nH]c(=O)n(-c5ncccn5)c4c3)CC2)[C@@H]1c1ccccc1 (single isomer, unassigned) [Example 14] | 0.0268 | 0.923 | 1.03 | –
9 | 1.34 | 7.13 | – | CC1(C)OC(=O)N([C@H]2CC[C@H](c3cc(-c4ncccn4)c[nH]c3=O)CC2)[C@@H]1c1ccccc1 [Example 82, 3-(trans-4-((4R)-5,5-dimethyl-2-oxo-4-phenyl-1,3-oxazolidin-3-yl)cyclohexyl)-5-(2-pyrimidinyl)-2(1H)-pyridinone] | 0.195 | – | – | –
10 | – | – | – | CC1(C)OC(=O)N(c2ccc(-c3nnc4ccc(Cl)nn34)cc2)[C@H]1c1ccccc1 [Example 68, (S)-3-(4-(6-chloro-[1,2,4]triazolo[4,3-b]pyridazin-3-yl)phenyl)-5,5-dimethyl-4-phenyloxazolidin-2-one] | 1.98 | > 10 | > 25 | –
11 | 0.767 | 0.84 | – | CC1(C)OC(=O)N([C@H]2CC[C@H](c3cc(-c4ncccn4)c[nH]c3=O)CC2)[C@H]1c1ccccc1 [Example 81, 3-(trans-4-((4S)-5,5-dimethyl-2-oxo-4-phenyl-1,3-oxazolidin-3-yl)cyclohexyl)-5-(2-pyrimidinyl)-2(1H)-pyridinone] | 0.0114 | – | – | –
12 | – | – | – | CC1(C)OC(=O)N([C@H]2CC[C@H](n3c(=O)[nH]c4cnccc43)CC2)[C@@H]1c1ccccc1 [Example 24, (R)-5,5-dimethyl-3-((1 r,4R)-4-(2-oxo-2,3-dihydro-1H-imidazo[4,5-c]pyridin-1-yl)cyclohexyl)-4-phenyloxazolidin-2-one] | – | 1.48 | 4.64 | –
13 | – | – | 0.0614 | CC1(C)OC(=O)N([C@H]2CC[C@H](n3c(=O)[nH]c4c(F)c(C#N)ccc43)CC2)[C@H]1c1ccccc1 [Example 60, 1-((1S,4r)-4-((S)-5,5-dimethyl-2-oxo-4-phenyloxazolidin-3-yl)cyclohexyl)-4-fluoro-2-oxo-2,3-dihydro-1H-benzo[d]imidazole-5-carbonitrile] | – | 0.0754 | – | –
14 | – | – | – | CC1(C)OC(=O)N([C@H]2CC[C@H](n3c(=O)[nH]c4ncccc43)CC2)[C@H]1c1ccccc1 [Example 30, (S)-5,5-dimethyl-3-((1r,4S)-4-(2-oxo-2,3-dihydro-1H-imidazo[4,5-b]pyridin-1-yl)cyclohexyl)-4-phenyloxazolidin-2-one] | – | 1.12 | 1.98 | –
15 | 1.58 | 2.68 | – | CC1(C)OC(=O)N([C@H]2CC[C@H](c3cnc(N)c(-c4ncccn4)c3)CC2)[C@@H]1c1ccccc1 [Example 75, (R)-3-((1r,4R)-4-(6-amino-5-(pyrimidin-2-yl)pyridin-3-yl)cyclohexyl)-5,5-dimethyl-4-phenyloxazolidin-2-one] | – | – | – | –
16 | – | – | 0.454 | CC1(C)OC(=O)N([C@H]2CC[C@H](n3c(=O)[nH]c4c(C#N)cccc43)CC2)[C@H]1c1ccccc1 [Example 51, 1-((1S,4r)-4-((S)-5,5-dimethyl-2-oxo-4-phenyloxazolidin-3-yl)cyclohexyl)-2-oxo-2,3-dihydro-1H-benzo[d]imidazole-4-carbonitrile] | – | 0.274 | – | –
17 | – | – | – | CC1(C)OC(=O)N([C@H]2CC[C@H](n3c(=O)[nH]c4cccnc43)CC2)C1c1ccccc1 (stereo partly shown) [Example 36, (R+S) 5,5-dimethyl-3-((1r,4r)-4-(2-oxo-1H-imidazo[4,5-b]pyridin-3(2H)-yl)cyclohexyl)-4-phenyloxazolidin-2-one] | – | 1.24 | 4.4 | –
18 | 0.0908 | 0.0519 | – | CC1(C)OC(=O)N([C@H]2CC[C@H](c3cnc(N)c(-c4ncccn4)c3)CC2)[C@H]1c1ccccc1 [Example 74, (S)-3-((1r,4S)-4-(6-amino-5-(pyrimidin-2-yl)pyridin-3-yl)cyclohexyl)-5,5-dimethyl-4-phenyloxazolidin-2-one] | – | – | – | –
19 | – | – | 0.795 | CC1(C)OC(=O)N([C@H]2CC[C@H](n3c(=O)[nH]c4cc(C#N)cnc43)CC2)[C@H]1c1ccccc1 [Example 57, 3-((1S,4r)-4-((S)-5,5-dimethyl-2-oxo-4-phenyloxazolidin-3-yl)cyclohexyl)-2-oxo-2,3-dihydro-1H-imidazo[4,5-b]pyridine-6-carbonitrile] | – | 0.172 | – | –
20 | – | – | – | CC1(C)OC(=O)N([C@H]2CC[C@H](n3c(=O)[nH]c4cncnc43)CC2)[C@H]1c1ccccc1 [Example 50, (S)-5,5-dimethyl-3-((1r,4S)-4-(8-oxo-7H-purin-9(8H)-yl)cyclohexyl)-4-phenyloxazolidin-2-one] | – | 0.292 | 0.391 | –

Row | SMILES | IC50 [2, 5] [µM] | EC50 (Axin2 in SW480 cells; Homo sapiens, SW480, 24 h) [µM] | EC50 (Axin2 in SW480 cells; [6]) [µM] | IC50 [1] [µM] | IC50 [2, 3] [µM] | EC50 (Axin2 in SW480 cells; [4]) [µM] | EC50 (Axin2 in SW480 cells; SW480 cells, 24 hours) [µM]
21 | CC1(C)OC(=O)N(c2ccc(-c3cc(-c4ccccn4)cnn3)cc2)[C@H]1c1ccccc1 [Example 40, (S)-5,5-dimethyl-4-phenyl-3-(4-(5-(pyridin-2-yl)pyridazin-3-yl)phenyl)oxazolidin-2-one] | 9.47 | > 25 | – | 0.621 | – | – | –
